Results taken from US20250051327A1, “MALT-1 MODULATORS” (EXSCIENTIA AI LIMITED, priority 2020, published 2025).

How the values were obtained:
[1] = molecular target: Recombinant human MALT-1 (amino acids 340-824) (Homo sapiens (Human), UniProt Q9UDY8); test: MALT-1 inhibition assay (fluorogenic substrate Ac-LRSR-Rh110-DP); format: biochemical; conditions: recombinant human MALT-1, substrate Ac-LRSR-Rh110-DP
How it was run: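 MALT-1 at 3 nM final was reacted with 10 μM Ac-LRSR-Rh110-DP, with substrate addition starting the reaction. Incubation ran 60 minutes at 25° C in the dark. Percent inhibition from fluorescence across doses was fitted to a 4-parameter logistic to give IC50.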

[2] = tested on: IL-2 secretion by human effector memory T cells (TEM); test: Effector memory T cells IL-2 release assay; format: cell-based; conditions: T-cell; human CD4+ effector memory T cells, CD3/CD28 bead stimulation, 24 h; read-out: CD4TC IL2 IC50
How it was run: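 Human CD4+ effector memory T cells from healthy-donor buffy coats were stimulated with anti-CD3/CD28 Dynabeads and exposed to 10 semi-log compound doses (0.1% DMSO) for 24 h at 37 °C. Supernatant IL-2 was measured by HTRF, and IC50 came from a 4-parameter logistic fit to maximal IL-2. Viability was checked by flow cytometry.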

Sequence of Recombinant human MALT-1 (amino acids 340-824) (Q9UDY8 340-824): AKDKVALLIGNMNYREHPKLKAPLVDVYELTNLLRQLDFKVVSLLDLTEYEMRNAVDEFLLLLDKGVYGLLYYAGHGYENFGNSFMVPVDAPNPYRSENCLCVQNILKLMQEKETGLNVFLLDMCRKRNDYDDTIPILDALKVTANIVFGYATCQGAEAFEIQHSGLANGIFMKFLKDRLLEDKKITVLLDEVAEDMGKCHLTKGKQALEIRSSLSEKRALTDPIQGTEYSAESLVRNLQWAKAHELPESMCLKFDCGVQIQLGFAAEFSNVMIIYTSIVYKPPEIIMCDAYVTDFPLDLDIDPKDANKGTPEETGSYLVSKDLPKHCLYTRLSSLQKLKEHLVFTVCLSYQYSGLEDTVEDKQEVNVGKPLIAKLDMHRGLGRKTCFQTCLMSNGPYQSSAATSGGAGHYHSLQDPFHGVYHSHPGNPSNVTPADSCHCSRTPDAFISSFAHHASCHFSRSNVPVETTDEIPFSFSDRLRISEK

Structure (SMILES)	IC50 [1] [nM]	IC50 [2] [nM]
CC(=O)N1CC[C@H](C(=O)N(C)[C@@H](c2ccc(N3CCCc4c3cnc3cc(Cl)nn43)cc2)C(F)(F)F)C1 (relative stereo) [CPD0073189, (3rel-S)-1-acetyl-N-[(1S)-1-(4-{4-chloro-2,3,7,10-tetraazatricyclo[7.4.0.0^2,6]trideca-1(9),3,5,7-tetraen-10-yl}phenyl)-2,2,2-trifluoroethyl]-N-methylpyrrolidine-3-carboxamide]	76	160
C[C@@H]1CCN(c2ccc([C@H](N(C)C(=O)[C@H]3CC[S@@](=N)(=O)CC3)C(F)(F)F)cc2)c2cnc3cc(Cl)nn3c21 (relative stereo) [CPD0073192, (1rel-s,4rel-s)-N-[(1S)-1-{4-[(13rel-R)-4-chloro-13-methyl-2,3,7,10-tetraazatricyclo[7.4.0.0^2,6]trideca-1(9),3,5,7-tetraen-10-yl]phenyl}-2,2,2-trifluoroethyl]-1-imino-N-methyl-1-oxo-1λ^6-thiane-4-carboxamide]	25	80
C[C@@H]1CCN(c2ccc([C@H](N(C)C(=O)[C@H]3CC[S@](=N)(=O)CC3)C(F)(F)F)cc2)c2cnc3cc(Cl)nn3c21 (relative stereo) [CPD0073193, (1rel-r,4rel-r)-N-[(1S)-1-{4-[(13rel-R)-4-chloro-13-methyl-2,3,7,10-tetraazatricyclo[7.4.0.0^2,6]trideca-1(9),3,5,7-tetraen-10-yl]phenyl}-2,2,2-trifluoroethyl]-1-imino-N-methyl-1-oxo-1λ^6-thiane-4-carboxamide]	22	68
C[C@H]1CCN(c2ccc([C@H](N(C)C(=O)[C@H]3CC[S@@](=N)(=O)CC3)C(F)(F)F)cc2)c2cnc3cc(Cl)nn3c21 (relative stereo) [CPD0073194, (1rel-s,4rel-s)-N-[(1S)-1-{4-[(13rel-S)-4-chloro-13-methyl-2,3,7,10-tetraazatricyclo[7.4.0.0^2,6]trideca-1(9),3,5,7-tetraen-10-yl]phenyl}-2,2,2-trifluoroethyl]-1-imino-N-methyl-1-oxo-1λ^6-thiane-4-carboxamide]	20	51
C[C@H]1CCN(c2ccc([C@H](N(C)C(=O)[C@H]3CC[S@](=N)(=O)CC3)C(F)(F)F)cc2)c2cnc3cc(Cl)nn3c21 (relative stereo) [CPD0073195, (1rel-R,4rel-R)-N-[(1S)-1-{4-[(13rel-S)-4-chloro-13-methyl-2,3,7,10-tetraazatricyclo[7.4.0.0^2,6]trideca-1(9),3,5,7-tetraen-10-yl]phenyl}-2,2,2-trifluoroethyl]-1-imino-N-methyl-1-oxo-1λ^6-thiane-4-carboxamide]	22	51
CN1C[C@@H](C(=O)N(C)[C@@H](c2ccc(N3CCCc4c3cnc3cc(Cl)nn43)cc2)C(F)(F)F)CCC1=O (relative stereo) [CPD0073196, (3rel-S)-N-[(1S)-1-(4-{4-chloro-2,3,7,10-tetraazatricyclo[7.4.0.0^2,6]trideca-1(9),3,5,7-tetraen-10-yl}phenyl)-2,2,2-trifluoroethyl]-N,1-dimethyl-6-oxopiperidine-3-carboxamide]	80	122
CN1C[C@H](C(=O)N(C)[C@@H](c2ccc(N3CCCc4c3cnc3cc(Cl)nn43)cc2)C(F)(F)F)CCC1=O (relative stereo) [CPD0073197, (3rel-R)-N-[(1S)-1-(4-{4-chloro-2,3,7,10-tetraazatricyclo[7.4.0.0^2,6]trideca-1(9),3,5,7-tetraen-10-yl}phenyl)-2,2,2-trifluoroethyl]-N,1-dimethyl-6-oxopiperidine-3-carboxamide]	103	207
CC(=O)N1CCC[C@@H](C(=O)N(C)[C@@H](c2ccc(N3CCCc4c3cnc3cc(Cl)nn43)cc2)C(F)(F)F)C1 (relative stereo) [CPD0073499, (3rel-R)-1-acetyl-N-[(1S)-1-(4-{4-chloro-2,3,7,10-tetraazatricyclo[7.4.0.0^2,6]trideca-1(9),3,5,7-tetraen-10-yl}phenyl)-2,2,2-trifluoroethyl]-N-methylpiperidine-3-carboxamide]	127	175
CC(=O)N1CCC[C@H](C(=O)N(C)[C@@H](c2ccc(N3CCCc4c3cnc3cc(Cl)nn43)cc2)C(F)(F)F)C1 (relative stereo) [CPD0073500, (3rel-S)-1-acetyl-N-[(1S)-1-(4-{4-chloro-2,3,7,10-tetraazatricyclo[7.4.0.0^2,6]trideca-1(9),3,5,7-tetraen-10-yl}phenyl)-2,2,2-trifluoroethyl]-N-methylpiperidine-3-carboxamide]	167	267
CN1C[C@H](C(=O)N(C)[C@@H](c2ccc(N3CCCc4c3cnc3cc(Cl)nn43)cc2)C(F)(F)F)CC1=O (relative stereo) [CPD0073556, (3rel-R)-N-[(1S)-1-(4-{4-chloro-2,3,7,10-tetraazatricyclo[7.4.0.0^2,6]trideca-1(9),3,5,7-tetraen-10-yl}phenyl)-2,2,2-trifluoroethyl]-N,1-dimethyl-5-oxopyrrolidine-3-carboxamide]	79	200
CN1C[C@@H](C(=O)N(C)[C@@H](c2ccc(N3CCCc4c3cnc3cc(Cl)nn43)cc2)C(F)(F)F)CC1=O (relative stereo) [CPD0073557, (3rel-S)-N-[(1S)-1-(4-{4-chloro-2,3,7,10-tetraazatricyclo[7.4.0.0^2,6]trideca-1(9),3,5,7-tetraen-10-yl}phenyl)-2,2,2-trifluoroethyl]-N,1-dimethyl-5-oxopyrrolidine-3-carboxamide]	121	282
CN(C(=O)[C@H]1CCCS(=O)(=O)N1)[C@@H](c1ccc(N2CCCc3c2cnc2cc(Cl)nn32)cc1)C(F)(F)F (relative stereo) [CPD0073560, (3rel-R)-N-[(1S)-1-(4-{4-chloro-2,3,7,10-tetraazatricyclo[7.4.0.0^2,6]trideca-1(9),3,5,7-tetraen-10-yl}phenyl)-2,2,2-trifluoroethyl]-N-methyl-1,1-dioxo-1λ^6,2-thiazinane-3-carboxamide]	92	157
CN(C(=O)C1CN(C(=O)[C@H]2CCO2)C1)[C@@H](c1ccc(N2CCCc3c2cnc2cc(Cl)nn32)cc1)C(F)(F)F (relative stereo) [CPD0073562, N-[(1S)-1-(4-{4-chloro-2,3,7,10-tetraazatricyclo[7.4.0.0^2,6]trideca-1(9),3,5,7-tetraen-10-yl}phenyl)-2,2,2-trifluoroethyl]-N-methyl-1-[(2rel-R)-oxetane-2-carbonyl]azetidine-3-carboxamide]	80	352
CN(C(=O)C1CN(C(=O)[C@@H]2CCO2)C1)[C@@H](c1ccc(N2CCCc3c2cnc2cc(Cl)nn32)cc1)C(F)(F)F (relative stereo) [CPD0073563, N-[(1S)-1-(4-{4-chloro-2,3,7,10-tetraazatricyclo[7.4.0.0^2,6]trideca-1(9),3,5,7-tetraen-10-yl}phenyl)-2,2,2-trifluoroethyl]-N-methyl-1-[(2rel-S)-oxetane-2-carbonyl]azetidine-3-carboxamide]	62	269
